{"source": "patent US20190160035A1", "about": "“METHOD OF TREATMENT” (QBIOTICS LIMITED, priority 2016, published 2019)", "key": {"[1]": {"system": "MCT (cutaneous and subcutaneous)", "test": "Example 5: Compound 1 injection with oral prednisolone and antihistamine co-therapy, RECIST v.1.1 tumor response", "assay_type": "in vivo, Canis lupus familiaris (dog)", "details": "1 mg/kg/day, 24 h pre-treatment and 7 days post-treatment", "source_text": "This study investigates the efficacy and safety of Compound 1 injection for MCT treatment in the presence of corticosteroids administered under defined clinical situations.\nDogs were selected for the study if they met the criteria in Table 1 (Example 1) but where the dog has at least one MCT.\nWherever possible, the tumor and a 2 cm border surrounding the tumor was shaved prior to treatment. To deliver the drug, the needle of the dosing syringe was inserted into the tumor at the injection point and moved in a radial manner in 2- and 3-dimensions with drug delivered to the tumor mass. Study dogs were clinically examined at 2-4 and 24 hours, and 7 (+2), 14 (+2) and 28 (+2) days post-treatment (and unscheduled visits at attending veterinarian discretion).\n(§1) Each supervising veterinarian was given latitude to provide and record prophylactic and supportive medications as deemed appropriate for managing potential paraneoplastic events and tumor site necrosis following Compound 1 treatment. However, prednisolone and antihistamines were used as co-therapy. Prednisolone therapy commenced on Day −1 and continued for a further 7 days. H1 and H2 antihistamine therapy (chlorpheniramine and famotidine respectively) commenced on the morning of drug treatment and continued for a further 6 days (see Table 23).\n(§2) RECIST v.1.1 results are summarised in Table 28 which also includes a measure of neoadjuvant prednisolone action (potential tumor shrinkage) between screening and immediate pre-treatment tumor evaluation. Sixteen (16) dogs and eighteen (18) tumors were treated. Raw data for RECIST assessment was collected on Day 0 (immediately pre-treatment) and on Day 28 for fifteen (15) cases. […] With the remaining three (3) cases (C05-T-18, C05-V-01, and C05-V-02), the dogs were not available on Day 28 for RECIST assessment. For dog C05-T-18, the injection site was measured as CR on Days 21 and 37. […] For dog C05-V-01, the injection site was measured as PR on Days 21 and 37 (55% and 60% RECIST reduction respectively). […] For dog […], due to the progressive nature of disease, the animal was removed from study on Day 21."}, "MCT": {"system": "MCT", "test": "Example 5: neoadjuvant prednisolone action (tumor change between screening and immediate pre-treatment evaluation)", "assay_type": "in vivo, Canis lupus familiaris (dog)", "source_text": "as §1, §2"}, "[2]": {"details": "following 24 h neoadjuvant prednisolone, dog C05-T-17"}, "[3]": {"details": "per case (one dog tumor per line), negative = increase"}}, "note": "Several values for one entry are separate records, joined by “and”; a condition that tells them apart may be missing. Equal values may be shown once."}
{"smiles": "C[C@]12C=CC(=O)C=C1CC[C@@H]1[C@@H]2[C@@H](O)C[C@@]2(C)[C@H]1CC[C@]2(O)C(=O)CO", "note": "[prednisolone]", "values": [{"measurement": "Effect of oral prednisolone on drug (Compound 1) action", "setting": "[1]", "value": "limited or no suppressive effects"}, {"measurement": "RECIST reduction following 24 h prednisolone administration, Mean", "setting": "MCT; Mean of cases", "value": 5, "unit": "%"}, {"measurement": "Tumor vol (cm^3) reduction following 24 h prednisolone administration, Mean", "setting": "MCT; Mean of cases", "value": 27, "unit": "%"}, {"measurement": "RECIST reduction following 24 h prednisolone administration, Median", "setting": "MCT; Median of cases", "value": 6, "unit": "%"}, {"measurement": "Tumor vol (cm^3) reduction following 24 h prednisolone administration, Median", "setting": "MCT; Median of cases", "value": 31, "unit": "%"}, {"measurement": "Decrease in RECIST measure from screening to pre-treatment evaluation", "setting": "MCT; [2]", "value": 6, "unit": "%"}, {"measurement": "Decrease in tumor volume from screening to pre-treatment evaluation", "setting": "MCT; [2]", "value": 31, "unit": "%"}, {"measurement": "Tumor response following 24 h prednisolone administration (screening to immediate pre-treatment): RECIST reduction", "setting": "MCT; [3]", "value": "−5% and 8% and −23% and 39% and −12% and 0% and 16% and −8% and 28% and 12% and 20% and 6% and 34% and −26% and −20%"}, {"measurement": "Tumor response following 24 h prednisolone administration (screening to immediate pre-treatment): Tumor vol (cm^3) reduction", "setting": "MCT; [3]", "value": "23% and 62% and −36% and 71% and 61% and 13% and 59% and 35% and 45% and 27% and 31% and 76% and −118% and 14%"}]}
